Values quoted from earlier work in patent US10765646B2, “Methods of treating developmental encephalopathies” (Ovid Therapeutics Inc., priority 2017, dated 2020).
pKi: −log10 of the molar value.

Experiments:
[1] = estimated
[2] = 5 mg (±)-ketamine i.v. infusion (30 min), single dose, fasting, healthy subjects, serum
[3] = relative to ketamine
NMDA receptor = conditions: noncompetitive NMDA receptor antagonist

SMILES	elimination half-life [1] [h]	pKi (NMDA receptor)	other results
CNC1(c2ccccc2Cl)CCCCC1=O (racemic) [ketamine, (R,S)-2-(2-chlorophenyl)-2-(methylamino)cyclohexanone]	2 to 3	–	AUC0-∞ of (±)-ketamine [2]: 59.9 ± 13.2 ng·h/mL; Cmax of (±)-ketamine [2]: 33.7 ± 9.74 ng/mL; T1/2 (apparent terminal half-life) of (±)-ketamine [2]: 6.99 ± 5.22 h
NC1(c2ccccc2Cl)CCCCC1=O (racemic) [norketamine, (R,S)-2-(2-chlorophenyl)-2-(amino)cyclohexanone]	4	–	times less potent as an anesthetic in comparison (with ketamine) [3]: 3-5 times
N[C@@]1(c2ccccc2Cl)CCCCC1=O [(R)-(−)-norketamine]	–	4.89	–
N[C@]1(c2ccccc2Cl)CCCCC1=O [(S)-(+)-norketamine]	–	5.77	–
